Laboratory results from ChEMBL document CHEMBL3627608, “Crystal structures of human RIP2 kinase catalytic domain complexed with ATP-competitive inhibitors: Foundations for understanding inhibitor selectivity” (Bioorg Med Chem, 2015).

Columns and labels:
[1] = target: T1, Serine/threonine-protein kinase DCLK1 (Homo sapiens) (UniProt O15075); assay: Inhibition of DCAMKL1 (unknown origin) at 10 uM after 120 mins P33 radiolabeled kinase activity assay
T1 sequence (whole entry): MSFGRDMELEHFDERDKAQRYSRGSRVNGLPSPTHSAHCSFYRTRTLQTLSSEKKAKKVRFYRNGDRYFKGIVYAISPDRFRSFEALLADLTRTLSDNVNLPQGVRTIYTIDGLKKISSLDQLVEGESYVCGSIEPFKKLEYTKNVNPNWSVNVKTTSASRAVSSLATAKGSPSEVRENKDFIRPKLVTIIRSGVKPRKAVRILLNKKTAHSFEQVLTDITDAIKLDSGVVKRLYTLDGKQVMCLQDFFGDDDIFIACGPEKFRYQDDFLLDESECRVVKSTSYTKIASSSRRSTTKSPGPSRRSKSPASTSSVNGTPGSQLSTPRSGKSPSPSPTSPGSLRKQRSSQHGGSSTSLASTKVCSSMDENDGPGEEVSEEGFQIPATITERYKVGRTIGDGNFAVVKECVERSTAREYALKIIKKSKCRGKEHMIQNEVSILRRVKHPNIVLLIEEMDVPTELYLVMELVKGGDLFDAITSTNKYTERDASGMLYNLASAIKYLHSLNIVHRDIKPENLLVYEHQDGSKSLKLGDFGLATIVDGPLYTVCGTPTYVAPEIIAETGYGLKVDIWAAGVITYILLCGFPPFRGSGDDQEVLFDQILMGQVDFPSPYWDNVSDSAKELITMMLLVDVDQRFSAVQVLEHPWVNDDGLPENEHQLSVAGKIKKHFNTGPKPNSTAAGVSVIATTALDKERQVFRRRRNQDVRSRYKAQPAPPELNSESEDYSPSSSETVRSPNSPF

[2] = target: T2, Ephrin type-B receptor 1 (Homo sapiens) (UniProt P54762); assay: Inhibition of EPHB1 (unknown origin) at 10 uM after 120 mins P33 radiolabeled kinase activity assay
T2 sequence (whole entry): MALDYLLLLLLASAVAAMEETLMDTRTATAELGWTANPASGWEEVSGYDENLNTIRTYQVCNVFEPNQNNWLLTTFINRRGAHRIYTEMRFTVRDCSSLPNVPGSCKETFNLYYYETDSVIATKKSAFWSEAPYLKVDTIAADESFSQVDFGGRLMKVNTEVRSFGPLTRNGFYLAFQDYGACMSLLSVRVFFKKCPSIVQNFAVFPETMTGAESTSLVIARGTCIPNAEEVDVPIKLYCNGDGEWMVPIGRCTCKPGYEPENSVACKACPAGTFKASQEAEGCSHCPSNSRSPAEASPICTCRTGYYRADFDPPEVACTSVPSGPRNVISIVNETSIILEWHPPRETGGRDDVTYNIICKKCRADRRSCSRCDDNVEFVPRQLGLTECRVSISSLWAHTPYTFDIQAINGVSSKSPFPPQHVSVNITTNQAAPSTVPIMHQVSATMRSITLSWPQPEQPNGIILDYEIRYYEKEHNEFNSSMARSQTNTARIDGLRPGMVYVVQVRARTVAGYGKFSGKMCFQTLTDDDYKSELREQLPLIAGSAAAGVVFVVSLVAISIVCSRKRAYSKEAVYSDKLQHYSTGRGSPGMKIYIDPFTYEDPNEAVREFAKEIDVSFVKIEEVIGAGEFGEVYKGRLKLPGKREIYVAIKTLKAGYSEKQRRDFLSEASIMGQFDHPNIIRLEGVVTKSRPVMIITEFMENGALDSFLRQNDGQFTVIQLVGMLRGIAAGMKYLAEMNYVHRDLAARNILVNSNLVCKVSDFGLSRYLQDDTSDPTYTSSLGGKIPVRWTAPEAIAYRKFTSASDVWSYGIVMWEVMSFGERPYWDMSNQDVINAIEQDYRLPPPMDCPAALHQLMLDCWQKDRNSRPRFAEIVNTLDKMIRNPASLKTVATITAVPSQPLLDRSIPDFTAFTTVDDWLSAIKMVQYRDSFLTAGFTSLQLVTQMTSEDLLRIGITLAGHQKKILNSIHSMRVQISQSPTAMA

[3] = target: Fibroblast growth factor receptor 4 (Homo sapiens) (UniProt P22455); assay: Inhibition of FGFR4 (unknown origin) at 10 uM after 120 mins P33 radiolabeled kinase activity assay
Chain of Fibroblast growth factor receptor 4 (Homo sapiens) (P22455 22-802 limits assumed): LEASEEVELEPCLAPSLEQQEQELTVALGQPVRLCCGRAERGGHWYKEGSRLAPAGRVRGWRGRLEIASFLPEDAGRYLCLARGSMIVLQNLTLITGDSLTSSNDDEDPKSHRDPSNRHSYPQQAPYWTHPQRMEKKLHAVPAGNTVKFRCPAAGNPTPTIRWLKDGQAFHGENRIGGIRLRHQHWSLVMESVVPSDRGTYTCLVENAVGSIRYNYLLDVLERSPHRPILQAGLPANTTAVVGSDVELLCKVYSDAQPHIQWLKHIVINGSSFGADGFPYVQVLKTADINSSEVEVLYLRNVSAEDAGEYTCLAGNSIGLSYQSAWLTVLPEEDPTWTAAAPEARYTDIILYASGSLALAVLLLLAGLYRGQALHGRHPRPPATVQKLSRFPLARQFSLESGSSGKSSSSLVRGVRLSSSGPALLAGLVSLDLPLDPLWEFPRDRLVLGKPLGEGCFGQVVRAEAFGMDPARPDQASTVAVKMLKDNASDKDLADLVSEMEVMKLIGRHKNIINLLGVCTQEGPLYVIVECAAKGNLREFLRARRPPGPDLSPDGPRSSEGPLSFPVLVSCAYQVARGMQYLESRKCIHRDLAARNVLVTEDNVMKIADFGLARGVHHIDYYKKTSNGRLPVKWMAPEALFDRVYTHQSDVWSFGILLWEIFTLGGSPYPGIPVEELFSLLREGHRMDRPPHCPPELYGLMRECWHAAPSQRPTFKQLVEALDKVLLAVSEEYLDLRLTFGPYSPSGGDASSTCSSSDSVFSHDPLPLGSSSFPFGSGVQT

[4] = target: Mitogen-activated protein kinase 11 (Homo sapiens) (UniProt Q15759); assay: Inhibition of P38beta (unknown origin) at 10 uM after 120 mins P33 radiolabeled kinase activity assay
Chain of Mitogen-activated protein kinase 11 (Homo sapiens) (Q15759 whole entry): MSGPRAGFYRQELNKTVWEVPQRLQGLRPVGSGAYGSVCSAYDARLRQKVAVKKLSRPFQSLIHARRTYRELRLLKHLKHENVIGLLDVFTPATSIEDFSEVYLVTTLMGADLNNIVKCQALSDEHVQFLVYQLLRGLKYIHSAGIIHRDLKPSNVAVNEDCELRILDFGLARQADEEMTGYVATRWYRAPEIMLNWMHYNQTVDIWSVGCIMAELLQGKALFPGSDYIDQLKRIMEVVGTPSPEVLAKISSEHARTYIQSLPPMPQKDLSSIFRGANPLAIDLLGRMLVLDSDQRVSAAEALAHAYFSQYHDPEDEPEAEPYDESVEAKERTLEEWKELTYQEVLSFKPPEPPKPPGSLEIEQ

[5] = target: T3, Protein kinase C iota type (Homo sapiens) (UniProt P41743); assay: Inhibition of PKCiota (unknown origin) at 10 uM after 120 mins P33 radiolabeled kinase activity assay
T3 sequence (whole entry): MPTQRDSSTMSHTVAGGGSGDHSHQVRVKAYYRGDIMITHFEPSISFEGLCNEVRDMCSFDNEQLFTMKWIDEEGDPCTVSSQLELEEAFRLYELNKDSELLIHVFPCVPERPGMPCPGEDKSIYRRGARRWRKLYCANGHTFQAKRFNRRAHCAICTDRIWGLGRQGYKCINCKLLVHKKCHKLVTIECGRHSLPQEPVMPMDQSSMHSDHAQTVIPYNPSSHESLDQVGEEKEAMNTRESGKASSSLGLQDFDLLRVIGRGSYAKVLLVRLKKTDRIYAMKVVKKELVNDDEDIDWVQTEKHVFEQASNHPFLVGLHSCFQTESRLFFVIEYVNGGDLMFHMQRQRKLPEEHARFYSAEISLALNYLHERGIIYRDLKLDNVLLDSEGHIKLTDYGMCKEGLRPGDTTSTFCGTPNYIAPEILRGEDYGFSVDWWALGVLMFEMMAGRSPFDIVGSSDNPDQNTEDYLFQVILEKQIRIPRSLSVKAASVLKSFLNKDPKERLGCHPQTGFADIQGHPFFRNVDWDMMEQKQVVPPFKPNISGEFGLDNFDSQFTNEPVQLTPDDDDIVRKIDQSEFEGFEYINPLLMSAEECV

[6] = target: Insulin receptor-related protein (Homo sapiens) (UniProt P14616); assay: Inhibition of IRR (unknown origin) at 10 uM after 120 mins P33 radiolabeled kinase activity assay
Chain of Insulin receptor-related protein (Homo sapiens) (P14616 27-742 limits assumed): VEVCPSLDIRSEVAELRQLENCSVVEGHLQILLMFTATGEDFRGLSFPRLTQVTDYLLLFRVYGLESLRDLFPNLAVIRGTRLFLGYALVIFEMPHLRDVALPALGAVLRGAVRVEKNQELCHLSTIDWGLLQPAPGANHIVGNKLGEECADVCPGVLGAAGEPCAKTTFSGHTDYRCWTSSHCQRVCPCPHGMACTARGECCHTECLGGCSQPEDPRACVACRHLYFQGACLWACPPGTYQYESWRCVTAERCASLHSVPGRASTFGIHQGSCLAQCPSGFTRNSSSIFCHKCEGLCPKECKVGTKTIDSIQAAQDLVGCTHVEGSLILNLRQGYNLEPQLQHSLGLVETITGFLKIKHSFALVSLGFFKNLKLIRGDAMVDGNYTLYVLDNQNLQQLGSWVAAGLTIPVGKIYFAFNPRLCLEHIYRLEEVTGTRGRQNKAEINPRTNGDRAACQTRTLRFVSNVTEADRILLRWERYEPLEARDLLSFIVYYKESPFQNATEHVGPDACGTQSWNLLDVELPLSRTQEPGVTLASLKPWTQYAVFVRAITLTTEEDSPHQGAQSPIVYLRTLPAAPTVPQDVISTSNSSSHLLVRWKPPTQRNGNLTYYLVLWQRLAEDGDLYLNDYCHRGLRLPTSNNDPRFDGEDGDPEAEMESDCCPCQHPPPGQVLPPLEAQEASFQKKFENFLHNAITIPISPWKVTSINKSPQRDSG
Chain of Insulin receptor-related protein (Homo sapiens) (P14616 747-1297 limits assumed): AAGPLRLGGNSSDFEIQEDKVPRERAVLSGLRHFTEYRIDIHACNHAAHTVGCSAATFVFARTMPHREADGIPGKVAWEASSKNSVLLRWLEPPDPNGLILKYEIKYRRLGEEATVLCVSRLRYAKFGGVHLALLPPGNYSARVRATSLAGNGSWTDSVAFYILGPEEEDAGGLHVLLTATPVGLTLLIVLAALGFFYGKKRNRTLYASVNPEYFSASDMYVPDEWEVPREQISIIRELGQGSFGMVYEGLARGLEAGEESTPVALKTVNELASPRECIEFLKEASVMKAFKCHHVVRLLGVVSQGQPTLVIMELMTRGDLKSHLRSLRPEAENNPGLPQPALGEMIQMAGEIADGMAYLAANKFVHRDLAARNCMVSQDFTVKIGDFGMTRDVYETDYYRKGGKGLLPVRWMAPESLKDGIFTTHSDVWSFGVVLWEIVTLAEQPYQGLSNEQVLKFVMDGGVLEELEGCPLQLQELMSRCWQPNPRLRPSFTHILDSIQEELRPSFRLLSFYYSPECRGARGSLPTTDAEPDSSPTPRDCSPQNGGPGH

[7] = target: Protein-tyrosine kinase 6 (Homo sapiens) (UniProt Q13882); assay: Inhibition of BRK (unknown origin) at 10 uM after 120 mins P33 radiolabeled kinase activity assay
Chain of Protein-tyrosine kinase 6 (Homo sapiens) (Q13882 whole entry, looked up): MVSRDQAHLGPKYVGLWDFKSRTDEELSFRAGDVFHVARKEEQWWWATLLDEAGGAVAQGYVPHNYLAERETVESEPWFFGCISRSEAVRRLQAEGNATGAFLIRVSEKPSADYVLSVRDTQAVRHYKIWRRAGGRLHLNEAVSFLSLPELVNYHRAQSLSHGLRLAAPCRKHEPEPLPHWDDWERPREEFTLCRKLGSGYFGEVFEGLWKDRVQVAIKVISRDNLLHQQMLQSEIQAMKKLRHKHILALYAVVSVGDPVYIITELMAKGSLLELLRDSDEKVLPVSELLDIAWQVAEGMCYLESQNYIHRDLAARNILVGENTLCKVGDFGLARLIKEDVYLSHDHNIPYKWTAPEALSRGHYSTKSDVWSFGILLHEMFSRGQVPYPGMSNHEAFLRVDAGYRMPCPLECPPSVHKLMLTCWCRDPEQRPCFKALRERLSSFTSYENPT

[8] = target: Calcium/calmodulin-dependent protein kinase type 1D (Homo sapiens) (UniProt Q8IU85); assay: Inhibition of CAMK1delta (unknown origin) at 10 uM after 120 mins P33 radiolabeled kinase activity assay
Chain of Calcium/calmodulin-dependent protein kinase type 1D (Homo sapiens) (Q8IU85 whole entry, looked up): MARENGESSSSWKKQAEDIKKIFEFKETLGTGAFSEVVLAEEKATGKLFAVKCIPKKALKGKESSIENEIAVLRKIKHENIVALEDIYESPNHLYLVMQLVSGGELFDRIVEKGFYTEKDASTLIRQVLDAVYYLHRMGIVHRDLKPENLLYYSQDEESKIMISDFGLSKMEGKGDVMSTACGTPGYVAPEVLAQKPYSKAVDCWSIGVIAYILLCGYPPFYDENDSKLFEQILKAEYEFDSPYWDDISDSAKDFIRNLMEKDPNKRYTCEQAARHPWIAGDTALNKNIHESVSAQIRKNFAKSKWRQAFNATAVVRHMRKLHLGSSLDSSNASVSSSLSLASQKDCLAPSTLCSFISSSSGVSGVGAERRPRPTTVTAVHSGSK

[9] = target: CDK3/Cyclin E (Homo sapiens) (UniProt P24864+Q00526); assay: Inhibition of CDK3/cyclin E (unknown origin) at 10 uM after 120 mins P33 radiolabeled kinase activity assay; type: protein-complex assay
Chain of CDK3/Cyclin E (Homo sapiens) (P24864 whole entry, looked up): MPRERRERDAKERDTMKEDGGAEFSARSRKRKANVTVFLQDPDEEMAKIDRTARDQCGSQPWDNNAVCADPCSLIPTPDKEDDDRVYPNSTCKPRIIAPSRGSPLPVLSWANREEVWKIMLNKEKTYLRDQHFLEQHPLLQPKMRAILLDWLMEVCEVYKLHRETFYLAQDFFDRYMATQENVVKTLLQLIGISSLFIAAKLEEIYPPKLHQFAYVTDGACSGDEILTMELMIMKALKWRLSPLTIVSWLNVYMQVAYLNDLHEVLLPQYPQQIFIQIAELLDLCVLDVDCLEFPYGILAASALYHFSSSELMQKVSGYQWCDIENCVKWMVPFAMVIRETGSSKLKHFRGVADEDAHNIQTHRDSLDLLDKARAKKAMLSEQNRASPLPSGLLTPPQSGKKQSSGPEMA
Chain of CDK3/Cyclin E (Homo sapiens) (Q00526 whole entry, looked up): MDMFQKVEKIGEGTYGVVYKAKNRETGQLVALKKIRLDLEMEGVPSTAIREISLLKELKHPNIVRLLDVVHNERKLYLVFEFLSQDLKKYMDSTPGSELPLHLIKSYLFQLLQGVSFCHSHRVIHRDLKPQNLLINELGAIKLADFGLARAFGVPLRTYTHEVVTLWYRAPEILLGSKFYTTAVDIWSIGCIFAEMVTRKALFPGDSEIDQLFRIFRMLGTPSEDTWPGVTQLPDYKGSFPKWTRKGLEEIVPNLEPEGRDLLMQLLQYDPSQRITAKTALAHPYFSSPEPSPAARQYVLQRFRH

[10] = target: Death-associated protein kinase 2 (Homo sapiens) (UniProt Q9UIK4); assay: Inhibition of DAPK2 (unknown origin) at 10 uM after 120 mins P33 radiolabeled kinase activity assay
Chain of Death-associated protein kinase 2 (Homo sapiens) (Q9UIK4 whole entry, looked up): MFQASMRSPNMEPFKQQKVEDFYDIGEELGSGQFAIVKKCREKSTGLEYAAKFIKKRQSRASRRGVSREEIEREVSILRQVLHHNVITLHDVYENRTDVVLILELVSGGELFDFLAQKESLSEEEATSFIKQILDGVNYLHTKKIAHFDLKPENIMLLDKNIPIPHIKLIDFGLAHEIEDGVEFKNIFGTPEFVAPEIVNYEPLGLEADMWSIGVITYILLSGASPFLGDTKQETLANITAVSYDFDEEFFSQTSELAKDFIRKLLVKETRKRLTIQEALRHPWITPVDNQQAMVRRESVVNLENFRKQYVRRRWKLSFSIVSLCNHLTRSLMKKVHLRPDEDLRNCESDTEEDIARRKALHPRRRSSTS

COCCNC(=O)c1ccc2c(c1)nc(-c1cnc(-c3ccc(Cl)cc3)[nH]1)n2CCOC showed an inhibition [1] of 4.11%, an inhibition [2] of 12.3% and an inhibition [3] of 3.75%. The inhibition [4] was 10%, the inhibition [5] was 5.69% and the inhibition [6] was 1.49%. For the same compound, the inhibition [7] was 84.4%, the inhibition [8] was 3.59% and the inhibition [9] was 0.29%. For the same compound, the inhibition [10] was 6.92%.
Compound CS(=O)(=O)c1cccc(Nc2nccc(-c3sc(N4CCOCC4)nc3-c3cccc(NS(=O)(=O)c4c(F)cccc4F)c3)n2)c1 has an inhibition [1] of 8.06%, an inhibition [2] of 78.7% and an inhibition [3] of 47.3%. The inhibition [4] was -5.84%, the inhibition [5] was 9.85% and the inhibition [6] was 10.1%. The inhibition [7] was 100%, the inhibition [8] was 76.3% and the inhibition [9] was 60%. For the same compound, the inhibition [10] was 1.67%.
Compound CC(C)(C)c1cc(NC(=O)Nc2ccc(Oc3ccncc3)cc2)no1 has an inhibition [1] of 2.97%, an inhibition [2] of 93.2% and an inhibition [3] of 73.3%. It also gave an inhibition [4] of 96.2%, an inhibition [5] of 4.69% and an inhibition [6] of 33%. The inhibition [7] was 95.7%, the inhibition [8] was 8.06% and the inhibition [9] was 49.5%. For the same compound, the inhibition [10] was 3.58%.
